Source: PubChem BioAssay AID248 (DTP/NCI, 2004)
Several values for one entry are separate records, joined by “and”; a condition that tells them apart may be missing. Equal entries are not always repeated. Inconclusive results and toxic doses are left out. No stated cut-off is given here; in the data, active means T/C of 150% or more; inactive means T/C below 125%.

System: L1210 leukemia ip in BDF1 mice, survival T/C
Test: NCI In Vivo Anticancer Drug Screen. Data for tumor model L1210 Leukemia (intraperitoneal) in B6D2F1 (BDF1) mice
Conditions: endpoint: mean survival time, higher = longer survival
How it was run: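 Value reflects the ratio of survival in compound-treated mice to survival in vehicle-treated controls, with both groups carrying the same transplanted tumor.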

[1] = dose: 100.0 mg/kg/injection, schedule: Q04DX002 (ip), vehicle: saline with Tween-80
[2] = dose: 200.0 mg/kg/injection, schedule: Q04DX002 (ip), vehicle: saline with Tween-80
[3] = dose: 400.0 mg/kg/injection, schedule: Q04DX002 (ip), vehicle: saline with Tween-80
[4] = dose: 100.0 mg/kg/injection, schedule: Q04DX003 (ip), vehicle: Klucel (hydroxypropylcellulose) (HPC)
[5] = dose: 100.0 mg/kg/injection, schedule: Q04DX003 (ip), vehicle: saline
[6] = dose: 200.0 mg/kg/injection, schedule: Q04DX003 (ip), vehicle: saline
[7] = dose: 100.0 mg/kg/injection, schedule: Q01DX001 (ip), vehicle: saline
[8] = dose: 200.0 mg/kg/injection, schedule: Q01DX001 (ip), vehicle: saline
[9] = dose: 400.0 mg/kg/injection, schedule: Q01DX001 (ip), vehicle: saline

Measured: T/C

CCN(CC)CCCC(C)Nc1cc(N)nc2nc(-c3ccccc3)c(-c3ccccc3)nc12 (stereo not given)
inactive: dose: 9.5 mg/kg/injection, schedule: Q01DX001 (ip), vehicle: other 89 % of control | dose: 38.0 mg/kg/injection, schedule: Q01DX001 (ip), vehicle: other 87 % of control | dose: 75.0 mg/kg/injection, schedule: Q01DX001 (ip), vehicle: other 96 % of control

C/C=C\c1ccc(OC(=O)Nc2ccc(Cl)cc2)c(OC)c1
inactive: [1] 100 % of control | [2] 100 % of control | [3] 96 % of control

O=C1c2cc(Cl)ccc2-c2ccc([N+](=O)[O-])cc21
inactive: [4] 100 % of control | dose: 200.0 mg/kg/injection, schedule: Q04DX003 (ip), vehicle: Klucel (hydroxypropylcellulose) (HPC) 97 % of control | dose: 400.0 mg/kg/injection, schedule: Q04DX003 (ip), vehicle: Klucel (hydroxypropylcellulose) (HPC) 106 % of control

O=C(NCCCN1CC1)C(=O)NCCCN1CC1
inactive: dose: 1.5 mg/kg/injection, schedule: Q04DX003 (ip), vehicle: Klucel (hydroxypropylcellulose) (HPC) 121 % of control | dose: 2.3 mg/kg/injection, schedule: Q04DX003 (ip), vehicle: Klucel (hydroxypropylcellulose) (HPC) 110 % of control | dose: 3.12 mg/kg/injection, schedule: Q04DX003 (ip), vehicle: Klucel (hydroxypropylcellulose) (HPC) 112 % of control
active: dose: 5.3 mg/kg/injection, schedule: Q04DX003 (ip), vehicle: Klucel (hydroxypropylcellulose) (HPC) 166 % of control | dose: 8.0 mg/kg/injection, schedule: Q04DX003 (ip), vehicle: Klucel (hydroxypropylcellulose) (HPC) 173 % of control | dose: 12.0 mg/kg/injection, schedule: Q04DX003 (ip), vehicle: Klucel (hydroxypropylcellulose) (HPC) 215 % of control | dose: 12.5 mg/kg/injection, schedule: Q04DX003 (ip), vehicle: Klucel (hydroxypropylcellulose) (HPC) 180 % of control | dose: 18.0 mg/kg/injection, schedule: Q04DX003 (ip), vehicle: Klucel (hydroxypropylcellulose) (HPC) 183 % of control

CC(C)OC(=O)C1OC1c1ccccc1 (stereo not given)
inactive: [1] 109 % of control | [2] 102 % of control | [3] 109 % of control

C[OH+]c1ccccc1C(=O)O.C[OH+]c1ccccc1C(=O)O.[Ni]
inactive: dose: 25.0 mg/kg/injection, schedule: Q04DX002 (ip), vehicle: saline with Tween-80 97 % of control and 103 % of control | dose: 50.0 mg/kg/injection, schedule: Q04DX002 (ip), vehicle: saline with Tween-80 100 % of control and 107 % of control | [2] 120 % of control and 90 % of control

CC(C)(C#N)c1ccnc2ccccc12
inactive: dose: 12.5 mg/kg/injection, schedule: Q01DX009 (ip), vehicle: Klucel (hydroxypropylcellulose) (HPC) 89 % of control | dose: 25.0 mg/kg/injection, schedule: Q01DX009 (ip), vehicle: Klucel (hydroxypropylcellulose) (HPC) 100 % of control | dose: 25.0 mg/kg/injection, schedule: Q04DX003 (ip), vehicle: Klucel (hydroxypropylcellulose) (HPC) 104 % of control | dose: 50.0 mg/kg/injection, schedule: Q04DX003 (ip), vehicle: Klucel (hydroxypropylcellulose) (HPC) 96 % of control | [4] 96 % of control

CCCCCCCCCCCCCC(=O)CC(=O)OC
inactive: dose: 75.0 mg/kg/injection, schedule: Q04DX003 (ip), vehicle: Klucel (hydroxypropylcellulose) (HPC) 94 % of control | dose: 100.0 mg/kg/injection, schedule: Q01DX001 (ip), vehicle: Klucel (hydroxypropylcellulose) (HPC) 103 % of control | dose: 150.0 mg/kg/injection, schedule: Q04DX003 (ip), vehicle: Klucel (hydroxypropylcellulose) (HPC) 106 % of control | dose: 200.0 mg/kg/injection, schedule: Q01DX001 (ip), vehicle: Klucel (hydroxypropylcellulose) (HPC) 100 % of control | dose: 300.0 mg/kg/injection, schedule: Q04DX003 (ip), vehicle: Klucel (hydroxypropylcellulose) (HPC) 93 % of control | dose: 400.0 mg/kg/injection, schedule: Q01DX001 (ip), vehicle: Klucel (hydroxypropylcellulose) (HPC) 96 % of control

CCCCC(CCCC)(C(=O)OCCOCCCl)c1cccc2ccccc12
inactive: [1] 101 % of control | [2] 95 % of control | [3] 99 % of control

COc1ccc(C)cc1NC(=O)Nc1ccccc1F
inactive: dose: 100.0 mg/kg/injection, schedule: Q01DX009 (ip), vehicle: Klucel (hydroxypropylcellulose) (HPC) 97 % of control and 91 % of control | dose: 200.0 mg/kg/injection, schedule: Q01DX009 (ip), vehicle: Klucel (hydroxypropylcellulose) (HPC) 89 % of control | dose: 400.0 mg/kg/injection, schedule: Q01DX009 (ip), vehicle: Klucel (hydroxypropylcellulose) (HPC) 92 % of control and 101 % of control

Nc1ncnc(N)c1NC(=O)C1CCCCC1
inactive: dose: 25.0 mg/kg/injection, schedule: Q01DX001 (ip), vehicle: Klucel (hydroxypropylcellulose) (HPC) 101 % of control | dose: 50.0 mg/kg/injection, schedule: Q01DX001 (ip), vehicle: Klucel (hydroxypropylcellulose) (HPC) 101 % of control

Cn1ccc(CCl)n1
inactive: [5] 95 % of control | [6] 97 % of control

CCOC(=O)NNc1ccccc1
inactive: [7] 102 % of control | [8] 97 % of control

O=C(CSc1ccccc1)NCc1cnccn1
inactive: dose: 100.0 mg/kg/injection, schedule: Q01DX009 (ip), vehicle: saline 103 % of control | [5] 92 % of control | dose: 200.0 mg/kg/injection, schedule: Q01DX009 (ip), vehicle: saline 102 % of control | [6] 105 % of control | dose: 400.0 mg/kg/injection, schedule: Q04DX003 (ip), vehicle: saline 105 % of control

CC1(C)CC(=O)c2c(OC(=O)N(CCCl)CCCl)cc(OC(=O)N(CCCl)CCCl)cc2O1
inactive: dose: 25.0 mg/kg/injection, schedule: Q04DX002 (ip), vehicle: alcohol 94 % of control | dose: 50.0 mg/kg/injection, schedule: Q04DX002 (ip), vehicle: alcohol 113 % of control | dose: 100.0 mg/kg/injection, schedule: Q04DX002 (ip), vehicle: alcohol 94 % of control | dose: 200.0 mg/kg/injection, schedule: Q04DX002 (ip), vehicle: alcohol 97 % of control | dose: 400.0 mg/kg/injection, schedule: Q04DX002 (ip), vehicle: alcohol 90 % of control

O=C(c1ccccc1)c1cc2ccccc2n1S(=O)(=O)c1ccccc1
inactive: dose: 100.0 mg/kg/injection, schedule: Q04DX002 (ip), vehicle: Klucel (hydroxypropylcellulose) (HPC) 95 % of control | dose: 200.0 mg/kg/injection, schedule: Q04DX002 (ip), vehicle: Klucel (hydroxypropylcellulose) (HPC) 98 % of control | dose: 400.0 mg/kg/injection, schedule: Q04DX002 (ip), vehicle: Klucel (hydroxypropylcellulose) (HPC) 95 % of control

COCCCNc1ncnc2[nH]ncc12
inactive: dose: 15.0 mg/kg/injection, schedule: Q01DX015 (ip), vehicle: saline 95 % of control | dose: 30.0 mg/kg/injection, schedule: Q01DX015 (ip), vehicle: saline 101 % of control | dose: 50.0 mg/kg/injection, schedule: Q04DX003 (ip), vehicle: saline 96 % of control | dose: 60.0 mg/kg/injection, schedule: Q01DX015 (ip), vehicle: saline 97 % of control | [7] 106 % of control | [5] 98 % of control | dose: 120.0 mg/kg/injection, schedule: Q01DX015 (ip), vehicle: saline 110 % of control | [8] 106 % of control | [6] 100 % of control | [9] 116 % of control

CC1S(=O)(=O)CC(NC(=O)N(CCCl)N=O)CS1(=O)=O (stereo not given)
inactive: dose: 135.0 mg/kg/injection, schedule: Q01DX001 (ip), vehicle: saline with Tween-80 116 % of control
active: dose: 3.5 mg/kg/injection, schedule: Q01DX001 (ip), vehicle: saline with Tween-80 159 % of control | dose: 5.3 mg/kg/injection, schedule: Q01DX001 (ip), vehicle: saline with Tween-80 172 % of control and 208 % of control | dose: 8.0 mg/kg/injection, schedule: Q01DX001 (ip), vehicle: saline with Tween-80 278 % of control and 309 % of control | dose: 12.0 mg/kg/injection, schedule: Q01DX001 (ip), vehicle: saline with Tween-80 357 % of control [middle of 4 runs] | dose: 18.0 mg/kg/injection, schedule: Q01DX001 (ip), vehicle: saline with Tween-80 324 % of control and 421 % of control | dose: 26.0 mg/kg/injection, schedule: Q01DX001 (ip), vehicle: saline with Tween-80 444 % of control and 458 % of control | dose: 40.0 mg/kg/injection, schedule: Q01DX001 (ip), vehicle: saline with Tween-80 516 % of control and 442 % of control | dose: 60.0 mg/kg/injection, schedule: Q01DX001 (ip), vehicle: saline with Tween-80 421 % of control and 156 % of control | dose: 90.0 mg/kg/injection, schedule: Q01DX001 (ip), vehicle: saline with Tween-80 252 % of control and 258 % of control

C[Si](C)(C)OC(C(F)(F)F)C(F)(F)F
inactive: dose: 100.0 mg/kg/injection, schedule: Q01DX001 (ip), vehicle: steriod suspending solution 98 % of control | dose: 200.0 mg/kg/injection, schedule: Q01DX001 (ip), vehicle: steriod suspending solution 96 % of control | dose: 400.0 mg/kg/injection, schedule: Q01DX001 (ip), vehicle: steriod suspending solution 86 % of control

CC(=O)OC1COC(n2cnc3c(=S)nc(N)[nH]c32)C(OC(C)=O)C1OC(C)=O (stereo not given)
inactive: [7] 100 % of control | [8] 97 % of control | [9] 97 % of control
